# From US20120060834A1, “PHARMACEUTICAL PREPARATION TO BE ADMINISTERED INTO RESPIRATORY ORGANS FOR TREATING OR PREVENTING INFLAMMATORY RESPIRATORY DISEASES, AND METHOD FOR TREATING OR PREVENTING SUCH DISEASES” (Postech Academy-Industry Foundation, priority 2009, published 2012)
# Assays:
# [1] = tested on: asthma animal model exhibiting TH1+TH17 immune responses; experiment: Therapeutic efficacy of WKYMVm upon systemic administration by intraperitoneal injection in asthma mouse model; assay type: in vivo, BALB/c mice
# Protocol: This sensitization was performed on Day 0, 1, 2 and 7. […] Meanwhile, the mice of the positive control were intraperitoneally administered with the same dose of phosphate-buffered saline (PBS). For a negative control, the sensitization on Day 0, 1, 2 and 7 and the challenge on Day 14, 15, 21, and 22 were conducted in the same manner as in the positive control, except that PBS was used instead of the allergen. […]
# (§1) Pulmonary inflammation was examined 6 hours (Day 22) and 48 hours (Day 24) after the final administration of the allergen. On Days 22 and 24, after mice were anesthetized by intraperitoneally injecting a mixture of ketamine and xylazine thereto, they were subjected to thoracotomy to expose the trachea into which a catheter was then inserted. After suturing the mice, 1 mL of germ-free PBS was infused twice to wash the airway to give bronchoalveolar lavage fluid (hereinafter referred to as “'BAL fluid”). For analyzing T-lymphocytes in lung tissues, the lung was excised and cells were extracted from local lymph nodes.
# (§2) Following centrifugation of the BAL fluid at 3000 rpm and at 4° C. for 10 min, the cell pellet thus formed was suspended in PBS, and rolled on slide using a cytospin and stained with Diff
# (§3) Quick. More than 300 inflammatory cells were observed under an optical microscope with […] magnification to determine cell counts by cell types, that is, macrophage, lymphocyte, neutrophil, and eosinophil. In the BAL fluid, the cytokines involved in Th1-mediated inflammation, such as gamma interferon, interferon-g-inducible protein 10 (IP-10), and IL-12, the cytokines involved in Th2-mediated inflammation, such as interleukin IL-4 and IL-13, the cytokines involved in Th17-mediated inflammation, such as IL-17, TNF-α and IL-6, and the cytokines involved in Th2- and Th17-mediated inflammation, such as TGF-13, were quantified using ELISA.
# (§4) The excised pulmonary tissue was treated with collagenase type IV (Sigma) to separate cells therefrom. The cells were surface stained with anti-CD3, anti-CD4, and anti-CD8 antibodies (BD Pharmingen), all being conjugated with a fluorescent and the membrane was perforated with Triton, followed by intracellular cytokine staining with anti-IFN-γ, anti-IL-17, anti-IL-10 and anti-IL-4 antibodies. Types of the T lymphocytes introduced into the lung were analyzed using the fluorescence activated cell scanner FACSCalibur (Becton Dickinson).
# (§5) After the cells extracted from the lymph nodes were incubated for 72 hours in PBS containing 100 μg/ml OVA, gamma interferon, IL-17 and IL-4, which are the cytokines involved in Th1-, Th17- and Th2-mediated inflammation, were quantified using ELISA.
# [2] = tested on: asthma animal model exhibiting TH1+TH17 immune responses; experiment: Therapeutic efficacy of WKYMVm upon intranasal administration in asthma mouse model; assay type: in vivo, BALB/c mice
# Protocol: This sensitization was performed on Day 0, 1, 2 and 7. […] Meanwhile, the mice of the positive control were intraperitoneally administered with the same dose of phosphate-buffered saline (PBS). For a negative control, the sensitization on Day 0, 1, 2 and 7 and the challenge on Day 14, 15, 21, and 22 were conducted in the same manner as in the positive control, except that PBS was used instead of the allergen.
# Twenty four hours after the final administration of the allergen (Day 23), the mice were examined for bronchial hypersensitivity to methacholine. In this context, the mice were placed in a chamber and allowed to inhale PBS for 3 min with the aid of a nebulizer, followed by measuring penh (enhanced pause) values for 3 min by means of non-invasive whole body plethysmography (Allmedicus, Korea). Likewise, the mice were allowed to inhale 6.25, 12.5, 25 and 50 mg/ml methacholine PBS sequentially, after which penh values for each concentration were measured. A mean of the penh values measured for 3 min was used as an index of airway obstruction.
# as §1, §2, §3, §4, §5
# The assay was performed in the same manner as in the Comparative Example, except that WKYMVm was administered intranasally instead of intraperitoneally. […] The other procedure was performed in the same manner as in the Comparative Example.
# [3] = molecular target: T1, FPR (formyl peptide receptor) (Homo sapiens, UniProt P21462); settings: cited from earlier work
# T1 sequence (P21462 1-350): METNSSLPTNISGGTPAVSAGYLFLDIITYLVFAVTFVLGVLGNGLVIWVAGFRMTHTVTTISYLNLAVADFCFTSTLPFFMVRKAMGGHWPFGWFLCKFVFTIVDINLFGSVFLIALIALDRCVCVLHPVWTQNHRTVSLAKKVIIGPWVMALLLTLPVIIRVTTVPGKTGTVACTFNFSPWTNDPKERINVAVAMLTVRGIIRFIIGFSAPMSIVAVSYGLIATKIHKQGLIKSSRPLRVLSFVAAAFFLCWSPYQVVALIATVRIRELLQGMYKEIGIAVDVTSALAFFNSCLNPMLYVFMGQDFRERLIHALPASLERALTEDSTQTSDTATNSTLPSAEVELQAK
substance,measurement,setting,value
Trp-Lys-Tyr-Met-Val-D-Met-CONH2 [WKYMVm],inflammatory cell count in BAL fluid,"[1]; i.p. 4 mg/kg, Day 22, 6 hours after final allergen, vs sham (positive control), FIG. 2",increase
same,release of gamma interferon by inflammatory cells separated from pulmonary tissue,"[1]; i.p. 4 mg/kg, Day 22, FIG. 3a",increased
same,level of IP-10 in BAL fluid,"[1]; i.p. 4 mg/kg, Day 22, FIG. 3b",increased levels
same,level of IL-12p40 in BAL fluid,"[1]; i.p. 4 mg/kg, Day 22, FIG. 3c",increased levels
same,number of IL-17-expressing CD4+ T cells from pulmonary tissues,"[1]; i.p. 4 mg/kg, Day 22, FIG. 4a",increase in number
same,level of IL-17 released to BAL fluid,"[1]; i.p. 4 mg/kg, Day 22, FIG. 4b",increase
same,level of IL-6 in BAL fluid,"[1]; i.p. 4 mg/kg, Day 22, FIG. 5a",increased levels
same,level of TNF-α in BAL fluid,"[1]; i.p. 4 mg/kg, Day 22, FIG. 5b",increased levels
same,inflammatory cell count in BAL,"[1]; i.p. 4 mg/kg, Day 24, 48 hours after final allergen, vs sham, FIG. 6",there was a difference
same,level of IL-12p40 (ELISA),"[1]; i.p. 4 mg/kg, Day 24, vs sham, FIG. 7a",no significant differences
same,level of TGF-β (ELISA),"[1]; i.p. 4 mg/kg, Day 24, vs sham, FIG. 7b",no significant differences
same,pulmonary/respiratory inflammation (overall conclusion),[1]; systemic (intraperitoneal) administration,did not ameliorate
same,suppressive effects on bronchial hypersensitivity and pulmonary inflammation,[2]; direct administration via the nasal cavity compared with systemic administration,higher suppressive effects
same,inflammatory cell count of BAL fluid,"[2]; intranasal 200 μg/kg, Day 22, 6 hours after allergen, vs sham (positive control), FIG. 8",no differences
same,release of gamma interferon by immune cells separated from local lymph nodes (in vitro),"[2]; intranasal 200 μg/kg, Day 22, vs positive control, FIG. 9a",higher level
same,gamma interferon-expressing CD4+ T cells from pulmonary tissue (count),"[2]; intranasal 200 μg/kg, Day 22, vs positive control, FIG. 9b",higher
same,level of gamma interferon in BAL fluid,"[2]; intranasal 200 μg/kg, Day 22, vs positive control, FIG. 9c",reduced
same,IL-17 released by local lymph node immune cells stimulated in vitro with allergen,"[2]; intranasal 200 μg/kg, Day 22, vs positive control, FIG. 10",higher amount
same,IL-17-expressing CD4+ T cells from pulmonary tissues (count),"[2]; intranasal 200 μg/kg, Day 22, vs positive control, FIG. 10b",more numerous
same,level of IL-17 in BAL fluid,"[2]; intranasal 200 μg/kg, Day 22, vs positive control, FIG. 10c",reduced
same,expression of Th2 cytokines in T cells of pulmonary tissues,"[2]; intranasal 200 μg/kg, Day 22, vs positive control, FIG. 11a",reduced
same,expression level of IL-10 in T cells of pulmonary tissues,"[2]; intranasal 200 μg/kg, Day 22, vs positive control, FIG. 11b",increased
same,release of IP-10 in BAL fluid,"[2]; intranasal 200 μg/kg, Day 22, vs positive control, FIG. 12a",reduced
same,release of IL-12p40 in BAL fluid,"[2]; intranasal 200 μg/kg, Day 22, vs positive control, FIG. 12b",reduced
same,release of TNF-α in BAL fluid,"[2]; intranasal 200 μg/kg, Day 22, vs positive control, FIG. 12c",lower levels
same,level of MCP-1 in BAL fluid,"[2]; intranasal 200 μg/kg, Day 22, vs positive control, FIG. 12e",lower levels
same,level of MIP-1a in BAL fluid,"[2]; intranasal 200 μg/kg, Day 22, vs positive control, FIG. 12f",lower levels
same,release of IL-1β in BAL fluid,"[2]; intranasal 200 μg/kg, Day 22, vs positive control, FIG. 12d",lower levels
same,release of IL-17 into BAL fluid,"[2]; intranasal 200 μg/kg, Day 24, vs positive control, FIG. 15",increased
same,release of TGF-β from inflammatory cells (BAL fluid),"[2]; intranasal 200 μg/kg, Day 24, vs positive control, FIG. 15b",significantly reduced
same,level of IL-12p40 in BAL fluid,"[2]; intranasal 200 μg/kg, Day 24, vs positive control, FIG. 16a",higher levels
same,level of IP-10 in BAL fluid,"[2]; intranasal 200 μg/kg, Day 24, vs positive control, FIG. 16b",higher levels
same,binding to FPR,[3],known to bind
